Target: T1, A. thaliana protein molecule SEQ ID NO: 4 (His-tagged, from pMON63134) (Arabidopsis thaliana, UniProt Q9ZW18)
T1 construct: His-tag (N); made in house; host or cells: E. coli (pET-28b vector, plasmid pMON63134)
Test: Spectrophotometric reductase assay, consumption or production of NADPH at 340 nm
Type: biochemical
Description: Appropriate clones (as shown in FIGS. 4-7) expressing all four versions of above-mentioned proteins in E. coli were identified by appropriate antibiotic selection as described by the manufacturer (Novagen 441 Charmany Drive Madison, Wis., 53719, USA). Expressed protein bands of the predicted sizes were identified by analytical SDS poly acrylamide gel electrophoresis (Laemmli, U.K., Nature, 227, 680, 1970) to confirm the expression of desired protein. […] Protein obtained from the plasmid pMON63134 (FIG. 6) was chosen for assay work described below. Protein extracts were prepared by freeze thawing and sonication as described Cull and McHenry (Cull M and McHenry C. S. Methods in Enzymology 182, 147-153, 1990). Pellets were resuspended in an appropriate volume of either 50 mM Tris-HCl pH 7.4 250 mM NaCl and 500 μM EDTA with 0.05% CHAPS and 1 mM ABESF or 50 mM KH2PO4 pH-7.2 250 mM NaCl and 250 μM EDTA with 0.05% CHAPS and 1 mM ABESF, buffer. Crude extracts containing His-tagged protein were applied to equilibrated His-Trap (Pharmacia Piscataway, N.J.) columns and purified by standard procedures as described by the manufacturer of the columns. Steps included a 10 mM imidazole elution/wash and elution in 250 mM imidazole. As a result the Arabidopsis tagged protein was partially purified (approximately 85-90% by SDS-PAGE stained with Coomasie Blue). Purified samples were gel filtered into 50 mM KH2PO4 pH-7.2 250 mM NaCl and 250 μM EDTA, 10% glycerol and stored at −80° C. until use. Protein concentrations were 1.5 to 1.7 mg/mL, based on the method of Bradford (Bradford M, Anal Biochem, 72, 248, 1976 and Bio-Rad Laboratories Procedure bulletin 1123) with BSA standard (Bradford reagent and BSA was from Bio-Rad Laboratories Headquarters 1000 Alfred Nobel Drive Hercules, Calif. 94547). The assays described below used 10 or 15 uL of this solution (15 to 22 μg per reaction).
Spectrophotometric assays were used for determination of enzyme activities of purified proteins. Assays were based on earlier described methods (Portsteffen et al. Phyochemistry, 37, 391, 1994). […] Assays were performed in a Varian Cary 50 Bio spectrophotometer (Varian Instruments Inc. AA, ICP, UV, to Fluorescence Products 679 Springvale RoadMulgrave, Victoria 3170 Australia). All assays were run at 30° C. for 10 to 30 minutes in 1 mL volumes using 100 mM KH2PO4 pH 6.5, 250 μM EDTA or 50 mM KH2PO4 pH-7.2, 250 mM NaCl, and 250 μM EDTA as reaction buffer. If metals were added they were supplemented to reactions in cuvettes from 100 mM stocks of either ZnCl2 and or MgCl2. Substrates included those found in table 8. […] Controls contained no substrate to determine the background rate of consumption and degradation of NADPH. NADPH solutions were freshly made and checked by UV-vis for degradation. Enzyme solutions were supplemented with 1 mM MgCl2 and 1 mM Zn Cl2 which were at 1.5 to 1.7 mg/mL concentrations. The assays used 10 or 15 μl of this solution (ca. 15 to 22 μg per reaction). Stock solutions of the substrates (20 to 500 mM) were made up in a reaction buffer or as noted. Steroids solutions were made in 100% EtOH. From these stock solutions additions to the assays were made directly. Precipitation of steroids was observed. Thus, the soluble concentration of steroids in reaction mixture is not accurately known in each case. However, good estimate of substrate (sterol) concentration would be 100 to 200 μM for a saturated solution under these conditions. […] In addition to cell extract control, a substrate control was also employed because solutions of some substrates tested can have a lower pH at described assay conditions which may affect rates of NADPH degradation and enzyme activity under assay conditions.

T1 sequence (Q9ZW18 1-268): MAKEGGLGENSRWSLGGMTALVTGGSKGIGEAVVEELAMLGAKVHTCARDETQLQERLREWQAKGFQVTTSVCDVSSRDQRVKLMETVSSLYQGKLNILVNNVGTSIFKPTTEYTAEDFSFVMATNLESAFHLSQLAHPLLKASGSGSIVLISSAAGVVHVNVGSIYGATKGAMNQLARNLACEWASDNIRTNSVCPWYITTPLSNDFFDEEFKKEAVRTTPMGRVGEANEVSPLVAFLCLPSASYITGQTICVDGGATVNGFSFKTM

In the case of O=C(O)C(O)C(O)C(O)C(O)CO (stereo not drawn) [Potassium d-gluconate], the “Activity (substrate)” value (25 mM) is reported as “No 25 mM”.

For CN1C2CCC1CC(O)C2 (stereo not drawn) [Tropine], the “Activity (substrate)” value (1 and 10 mM) was “No retested with new enzyme 1 and 10 mM”.

OC[C@H]1O[C@@](CO)(O[C@H]2O[C@H](CO)[C@@H](O)[C@H](O)[C@H]2O)[C@@H](O)[C@@H]1O [Sucrose] was tested, and the “Activity (substrate)” value (25 mM) was “No 25 mM”.

In the case of isopropanol, the “Activity (substrate)” value (68 mM, substrate for the reverse reaction) is reported as “Yes 68 mM” and the “substrate quality compared with acetone” value (at same concentrations, reverse reaction) is reported as “At high concentrations it is a substrate for the reverse reaction but at same concentrations is a poorer substrate than acetone indicating potential preference for the reductase activity under these conditions”.

OCC(O)C(O)C(O)CO (stereo not drawn) [Arabinitol] was tested, and the “Activity (substrate)” value (25 mM) was “No 25 mM”.

For O=C1OC(CO)[C@H](O)C(O)C1O (stereo partly drawn) [δ-gluconolactone], the “Activity (substrate)” value (25 mM) was “No 25 mM”.

In the case of C=C1C[C@]23C[C@@]1(O)CC[C@H]2[C@@]12C=C[C@H](O)[C@@](C)(C(=O)O1)[C@H]2[C@@H]3C(=O)O [Gibberellic Acid (GA3)], the “Activity (substrate)” value (1 and 10 mM) is reported as “No 1 and 10 mM”.

acetone was tested, and the “Activity (substrate)” value (65 mM) was “Yes” and the “Activity (substrate)” value (at lower concentrations than 65 mM) was “Much lower”.

For C[C@]12CCC(=O)CC1CCC1C2CC[C@]2(C)C(=O)CCC12 (stereo in doubt) [5α-androstane-3,17-dione], the “Activity (substrate)” value (100 μM) was “YES 100 μM”.

In the case of C[C@]12CCC(=O)C=C1CCC1C2CC[C@]2(C)C(=O)CCC12 (stereo partly drawn) [4-androstene-3,17-dione], the “Activity (substrate)” value (100 μM) is reported as “YES 100 μM”.

O=C1OC(CO)[C@@H](O)[C@H](O)C1O (stereo partly drawn) [Glucono 1,5 lactone] was tested, and the “Activity (substrate)” value (25 mM) was “No 25 mM”.

CN1C2CCC1CC(=O)C2 [Tropinone] was tested, and the “Activity (substrate)” value (1 and 10 mM) was “No retested with new enzyme 1 and 10 mM”.

In the case of OCC1O[C@H](O)C(O)[C@@H](O)[C@@H]1O (stereo partly drawn) [D-Glucose], the “Activity (substrate)” value (25 mM) is reported as “No 25 mM”.

Reference: US7994402B2, “Method of increasing plant organ and seed size in a plant” (Monsanto Technology LLC, priority 2002, dated 2011)
